# Source: US7186743B2, “Substituted pyrazolyl compounds for the treatment of inflammation” (Pharmacia Corporation, priority 2001, dated 2007)
# Where a name gives a salt, the structure may show the parent alone. Read-outs that look alike come from different tables or passages of the source.
# Biological target: T1, IKK2 (Homo sapiens, UniProt O14920)
# T1 construct: made in house; host or cells: insect cells (baculovirus, pFastBac; SF9)
# T1 sequence (O14920 1-756): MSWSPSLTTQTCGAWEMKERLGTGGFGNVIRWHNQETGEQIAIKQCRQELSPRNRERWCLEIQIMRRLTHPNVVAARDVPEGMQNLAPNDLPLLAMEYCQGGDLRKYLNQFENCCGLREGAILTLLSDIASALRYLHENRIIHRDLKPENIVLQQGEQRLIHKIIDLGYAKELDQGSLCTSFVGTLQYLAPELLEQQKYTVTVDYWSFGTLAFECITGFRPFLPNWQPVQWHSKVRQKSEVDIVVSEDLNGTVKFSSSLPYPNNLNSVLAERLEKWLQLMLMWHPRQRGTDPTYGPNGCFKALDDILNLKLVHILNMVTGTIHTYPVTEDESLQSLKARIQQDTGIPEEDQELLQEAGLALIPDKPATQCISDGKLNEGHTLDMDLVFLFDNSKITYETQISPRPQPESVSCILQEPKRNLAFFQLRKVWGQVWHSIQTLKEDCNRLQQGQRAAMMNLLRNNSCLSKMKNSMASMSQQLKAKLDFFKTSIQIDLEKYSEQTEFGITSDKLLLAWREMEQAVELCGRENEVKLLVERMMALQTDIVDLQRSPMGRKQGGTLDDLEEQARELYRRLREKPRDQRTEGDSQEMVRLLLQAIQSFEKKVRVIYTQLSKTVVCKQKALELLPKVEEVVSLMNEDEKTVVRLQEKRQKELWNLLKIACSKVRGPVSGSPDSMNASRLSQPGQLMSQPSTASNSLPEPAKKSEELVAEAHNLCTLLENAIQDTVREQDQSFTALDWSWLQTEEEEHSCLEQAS
# Experiment: IKKβ Resin Enzyme Assay (IKK2 resin)
# Type: biochemical
# Summary of the method: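 Enzyme: human IKK2 with a C-terminal FLAG tag, baculovirus-expressed, purified as homodimer on anti-FLAG resin. It phosphorylates a biotinylated IκBα peptide with 1 μM ATP plus [γ-33P]ATP in 25 mM Hepes pH 7.6, Mg/Mn, for 30 min at 25° C. Incorporation is counted by scintillation after anion-exchange resin stop.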
# [1] = Table 10, read-out: IKK2 Resin IC50
# [2] = Table 14, read-out: IKK2 Resin IC50
# [3] = Table 21, read-out: IKK2 Resin IC50
# [4] = Table 4, read-out: IKK2 Resin IC50
# [5] = Table 2, read-out: IKK Resin IC50
# [6] = Table 3, read-out: IKK Resin IC50
compound,measurement,setting,value
"CC(C)NCC(=O)Nc1ccc2c(c1)-c1c(c(C(N)=O)nn1-c1ccc3c(c1)OCO3)CC2 [Example 444, 1-(1,3-benzodioxol-5-yl)-8-[(N-isopropylglycyl)amino]-4,5-dihydro-1H-benzo[g]indazole-3-carboxamide]",IC50,"Table 23, read-out: IKK2 Resin IC50",≤ 1000 nM
"NC(=O)c1nn(-c2ccc(C#CCCCO)cc2)c2c1CCc1ccc(NC(=O)c3cccnc3Cl)cc1-2 [Example 387, 8-{[(2-chloropyridin-3-yl)carbonyl]amino}-1-[4-(5-hydroxypent-1-ynyl)phenyl]-4,5-dihydro-1H-benzo[g]indazole-3-carboxamide]",IC50,"Table 17, read-out: IKK2 Resin IC50",≤ 1000 nM
"COc1ccc(C(=O)Nc2ccc3c(c2)-c2c(c(C(N)=O)nn2-c2cccc(O)c2)CC3)c(Cl)c1 [Example 283, 8-[(2-chloro-4-methoxybenzoyl)ammo]-1-(3-hydroxyphenyl)-4,5-dihydro-1H-benzo[g]indazole-3-carboxamide]",IC50,[1],≤ 1000 nM
"NC(=O)c1nn(-c2ccc([N+](=O)[O-])cc2)c2c1CCc1ccc(NC(=O)c3ccccc3Cl)cc1-2 [Example 324, 8-[(2-chlorobenzoyl)amino]-1-(4-nitrophenyl)-4,5-dihydro-1H-benzo[g]indazole-3-carboxamide]",IC50,[2],≤ 1000 nM
"CSc1ccc(-n2nc(C(N)=O)c3c2-c2cc(NC(=O)c4cc5c(cc4Cl)OCO5)ccc2CC3)cc1 [Example 413, 8-{[(6-chloro-1,3-benzodioxol-5-yl)carbonyl]amino}-1-[4-(methylthio)phenyl]-4,5-dihydro-1H-benzo[g]indazole-3-carboxamide]",IC50,"Table 19, read-out: IKK2 Resin IC50",≤ 1000 nM
"NC(=O)c1nn(-c2ccc(F)c(F)c2)c2c1CCc1ccc(NC(=O)c3cccnc3Cl)cc1-2 [Example 364, 8-{[(2-chloropyridin-3-yl)carbonyl]amino}-1-(3,4-difluorophenyl)-4,5-dihydro-1H-benzo[g]indazole-3-carboxamide]",IC50,[2],≤ 1000 nM
"CN(C)S(=O)(=O)c1ccc(-n2nc(C(N)=O)c3c2-c2cc(NC(=O)c4ccccc4Cl)ccc2CC3)cc1 [Example 427, 8-[(2-chlorobenzoyl)amino]-1-{4-[(dimethylamino)sulfonyl]phenyl}-4,5-dihydro-1H-benzo[g]indazole-3-carboxamide]",IC50,[3],≤ 1000 nM
"C=CCNS(=O)(=O)c1ccc(-n2nc(C(N)=O)c3c2-c2cc(NC(=O)c4ccccc4Cl)ccc2CC3)cc1 [Example 421, 1-{4-[(allylamino)sulfonyl]phenyl}-8-[(2-chlorobenzoyl)amino]-4,5-dihydro-1H-benzo[g]indazole-3-carboxamide]",IC50,read-out: IKK-2 resin IC50,≤ 1000 nM
"NC(=O)c1nn(-c2ccc3c(c2)OCO3)c2c1CCc1ccc(NC(=O)c3ccc(C(F)(F)F)nc3Cl)cc1-2 [Example 181, 1-(1,3-benzodioxol-5-yl)-8-({[2-chloro-6-(trifluoromethyl)pyridin-3-yl]carbonyl}amino)-4,5-dihydro-1H-benzo[g]indazole-3-carboxamide]",IC50,[4],≤ 1000 nM
"CC1(C)Cc2c(C(N)=O)nn(-c3ccc4c(c3)OCO4)c2-c2cc(NC(=O)c3cccnc3Cl)ccc21 [Example 434, 1-(1,3-benzodioxol-5-yl)-8-{[(2-chloropyridin-3-yl)carbonyl]amino}-5,5-dimethyl-4,5-dihydro-1H-benzo[g]indazole-3-carboxamide]",IC50,"Table 22, read-out: IKK2 Resin IC50",≤ 1000 nM
"NC(=O)c1nn(-c2ccc(/C=C/n3ccnc3)cc2)c2c1CCc1ccc(NC(=O)c3ccccc3Cl)cc1-2 [Example 293, 8-[(2-chlorobenzoyl)amino]-1-{4-[(E)-2-(1H-imidazol-1-yl)ethenyl]phenyl}-4,5-dihydro-1H-benzo[g]indazole-3-carboxamide]",IC50,"Table 11, read-out: IKK2 Resin IC50",≤ 1000 nM
"NC(=O)c1nn(-c2ccc(F)cc2F)c2c1CCc1ccc(NC(=O)c3ccccc3Cl)cc1-2 [Example 353, 8-[(2-chlorobenzoyl)amino]-1-(2,4-difluorophenyl)-4,5-dihydro-1H-benzo[g]indazole-3-carboxamide]",IC50,[2],≤ 1000 nM
"CCS(=O)(=O)c1ccc(-n2nc(C(N)=O)c3c2-c2cc(NC(=O)c4cc(NC(=O)OC(C)(C)C)ccc4Cl)ccc2CC3)cc1 [Example 397, tert-butyl 3-[({3-(aminocarbonyl)-1-[4-(ethylsulfonyl)phenyl]-4,5-dihydro-1H-benzo[g]indazol-8-yl}amino)carbonyl]-4-chlorophenylcarbamate]",IC50,"Table 18, read-out: IKK2 Resin IC50",≤ 1000 nM
"COc1ccc(C(=O)Nc2ccc3c(c2)-c2c(c(C(N)=O)nn2-c2cccc(O)c2)CC3)c(Cl)c1OC [Example 286, 8-[(2-chloro-3,4-dimethoxybenzoyl)amino]-1-(3-hydroxyphenyl)-4,5-dihydro-1H-benzo[g]indazole-3-carboxamide]",IC50,[1],≤ 1000 nM
"C#CCN(CC#C)S(=O)(=O)c1ccc(-n2nc(C(N)=O)c3c2-c2cc(N)ccc2CC3)cc1 [Example 425, 8-amino-1-{4-[(diprop-2-ynylamino)sulfonyl]phenyl}-4,5-dihydro-1H-benzo[g]indazole-3-carboxamide]",IC50,[3],≤ 1000 nM
"NC(=O)c1nn(-c2cc(F)cc(F)c2)c2c1CCc1ccc(NC(=O)c3cccnc3Cl)cc1-2 [Example 347, 8-{[(2-chloropyridin-3-yl)carbonyl]amino}-1-(3,5-difluorophenyl)-4,5-dihydro-1H-benzo[g]indazole-3-carboxamide]",IC50,[2],≤ 1000 nM
"CS(=O)(=O)c1ccc(-n2nc(C(N)=O)c3c2-c2cc(NC(=O)c4cc(Cl)cnc4Cl)ccc2CC3)cc1 [Example 123, 8-{[(2,5-dichloropyridin-3-yl)carbonyl]amino}-1-[4-(methylsulfonyl)phenyl]-4,5-dihydro-1H-benzo[g]indazole-3-carboxamide]",IC50,[5],≤ 1000 nM
"NC(=O)c1nn(-c2ccc3c(c2)OCO3)c2c1CCc1ccc(NC(=O)c3ccc(O)nc3)cc1-2 [Example 186, 1-(1,3-benzodioxol-5-yl)-8-{[(6-hydroxypyridin-3-yl)carbonyl]amino}-4,5-dihydro-1H-benzo[g]indazole-3-carboxamide]",IC50,[4],≤ 1000 nM
"NC(=O)c1nn(-c2ccc3c(c2)OCO3)c2c1CCc1ccc(NC(=O)c3ccncc3)cc1-2 [Example 196, 1-(1,3-benzodioxol-5-yl)-8-(isonicotinoylamino)-4,5-dihydro-1H-benzo[g]indazole-3-carboxamide]",IC50,[4],≤ 1000 nM
"COc1ccc(C(=O)Nc2ccc3c(c2)-c2c(c(C(N)=O)nn2-c2ccc(S(C)(=O)=O)cc2)CC3)cc1 [Example 143, 8-[(4-methoxybenzoyl)amino]-1-[4-(methylsulfonyl)phenyl]-4,5-dihydro-1H-benzo[g]indazole-3-carboxamide]",IC50,[6],≤ 1000 nM
"Cc1ccncc1C(=O)Nc1ccc2c(c1)-c1c(c(C(N)=O)nn1-c1ccc3c(c1)OCO3)CC2 [Example 187, 1-(1,3-benzodioxol-5-yl)-8-{[(4-methylpyridin-3-yl)carbonyl]amino}-4,5-dihydro-1H-benzo[g]indazole-3-carboxamide]",IC50,[4],≤ 1000 nM
"NC(=O)c1nn(-c2ccc(F)cc2)c2c1CCc1ccc(NC(=O)c3cccc(N)c3Cl)cc1-2 [Example 229, 8-[(3-amino-2-chlorobenzoyl)amino]-1-(4-fluorophenyl)-4,5-dihydro-1H-benzo[g]indazole-3-carboxamide]",IC50,"Table 6, read-out: IKK2 Resin IC 50",≤ 1000 nM
"CS(=O)(=O)c1ccc(-n2nc(C(N)=O)c3c2-c2cc(NC(=O)c4cc(N)ccc4Cl)ccc2CC3)cc1 [Example 112, 8-[(5-amino-2-chlorobenzoyl)amino]-1-[4-(methylsulfonyl)phenyl]-4,5-dihydro-1H-benzo[g]indazole-3-carboxamidehydrochloride]",IC50,[5],≤ 1000 nM
"Cc1ccc(C(=O)Nc2ccc3c(c2)-c2c(c(C(N)=O)nn2-c2ccc(S(C)(=O)=O)cc2)CC3)c(Cl)n1 [Example 138, 8-{[(2-chloro-6-methylpyridin-3-yl)carbonyl]amino}-1-[4-(methylsulfonyl)phenyl]-4,5-dihydro-1H-benzo[g]indazole-3-carboxamide]",IC50,[6],≤ 1000 nM
"CS(=O)(=O)c1ccc(-n2nc(C(N)=O)c3c2-c2cc(NC(=O)c4ccc([N+](=O)[O-])cc4[N+](=O)[O-])ccc2CC3)cc1 [Example 155, 8-[(2,4-dinitrobenzoyl)animo]-1-[4-(methylsulfonyl)phenyl]-4,5-dihydro-1H-benzo[g]indazole-3-carboxamide]",IC50,[6],≤ 1000 nM
"CN(C)c1ccc(Cl)c(C(=O)Nc2ccc3c(c2)-c2c(c(C(N)=O)nn2-c2ccc(S(C)(=O)=O)cc2)CC3)c1 [Example 120, 8-{[2-chloro-5-(dimethylamino)benzoyl]amino}-1-[4-(methylsulfonyl)phenyl]-4,5-dihydro-1H-benzo[g]indazole-3-carboxamide]",IC50,[5],≤ 1000 nM
